Measured values from patent US20140057837A1, “METHODS AND COMPOSITIONS FOR THE "BROWNING" OF WHITE FAT” (priority 2012, published 2014).
Entries after “also recorded” stand apart in the source; their conditions may differ.

Experiments:
[1] = tested on: retroperitoneal white adipose tissue; assay: Norepinephrine stimulation in vivo: gene expression in white fat; set-up: species or system mice; details: NE 0.3 mg/kg s.c., 4 hours after injection, 30° C.
Procedure: Norepinephrine Stimulation In Vivo.
To measure the norepinephrine-induced gene expression changes in white fat, the mice after 6 weeks enrichment or control housing were anesthetized with pentobarbital (90 mg/kg, i.p.) and injected with 0.3 mg/kg norepinephrine (s.c.). The mice were maintained at 30° C. throughout the experiment. Fat pads were dissected 4 h after norepinephrine injection. qRT-PCR was used to profile gene expression in white fat.

[2] = tested on: white adipose tissue; assay: Propranolol experiment: EE-induced gene program in white adipose tissue (qRT-PCR); format: in vivo, C57BL/6 mice; details: propranolol in drinking water (0.5 g/L), EE or control housing for 5 weeks
Description: We randomly assigned 40 C57BL/6 mice, 3 weeks of age, to live in enriched or control cages supplied with propranolol in drinking water (0.5 g/L). We collected blood 3 weeks after enrichment and dissected fat pads after 5 weeks enrichment.

Row | Structure (SMILES) | Lep expression in EE retroperitoneal white adipose tissue ([1]; EE mice) | Ucp1 expression in EE retroperitoneal white adipose tissue ([1]; EE mice) | gene expression changes in control retroperitoneal white adipose tissue ([1]; control-housed mice) | EE-associated molecular features of white adipose tissue [2]
1 | NC[C@H](O)c1ccc(O)c(O)c1 [NE, norepinephrine] | further reduced significantly | highly increased | failed to induce significant changes | 
2 | CC(C)NCC(O)COc1cccc2ccccc12 (stereo not shown) [Propranolol, propranolol] |  |  |  | efficiently blocked the molecular features associated with EE; also recorded: blocked enrichment-associated molecular features of white adipose tissue
